One assay relates to MOLM-13. In words: Antiproliferative activity against human MOLM13 cells assessed as reduction of cell viability incubated for 72 hrs by trypan blue staining based cell counting analysis. It counts as functional.
For assay [1], the target named is MAP kinase-interacting serine/threonine-protein kinase 2 (Homo sapiens, UniProt Q9HBH9). Kind of assay: Inhibition of MKN2 (unknown origin) in presence of ATP by HTRF assay. Background: TR-FRET usually uses a lanthanide donor and a delayed reading to cut background.
Chain of MAP kinase-interacting serine/threonine-protein kinase 2 (Q9HBH9 whole entry): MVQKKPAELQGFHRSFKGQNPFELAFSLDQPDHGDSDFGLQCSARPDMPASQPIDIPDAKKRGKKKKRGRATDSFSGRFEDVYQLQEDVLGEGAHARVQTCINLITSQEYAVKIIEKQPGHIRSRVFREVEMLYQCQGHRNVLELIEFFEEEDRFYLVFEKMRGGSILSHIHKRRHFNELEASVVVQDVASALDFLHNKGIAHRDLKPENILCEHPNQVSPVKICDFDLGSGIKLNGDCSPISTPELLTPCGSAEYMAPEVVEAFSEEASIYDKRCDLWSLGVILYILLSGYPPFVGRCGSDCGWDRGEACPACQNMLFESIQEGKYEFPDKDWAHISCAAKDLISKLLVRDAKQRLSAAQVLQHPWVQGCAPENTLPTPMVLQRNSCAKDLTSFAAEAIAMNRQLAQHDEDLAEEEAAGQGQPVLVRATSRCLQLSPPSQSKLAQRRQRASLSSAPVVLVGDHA
Assay [2] addresses T1, MAP kinase-interacting serine/threonine-protein kinase 1 (Homo sapiens, UniProt Q9BUB5). Kind of assay: Inhibition of MKN1 (unknown origin) at 1 uM in presence of ATP by HTRF assay.
Target sequence in this assay (Q9BUB5 whole entry, looked up): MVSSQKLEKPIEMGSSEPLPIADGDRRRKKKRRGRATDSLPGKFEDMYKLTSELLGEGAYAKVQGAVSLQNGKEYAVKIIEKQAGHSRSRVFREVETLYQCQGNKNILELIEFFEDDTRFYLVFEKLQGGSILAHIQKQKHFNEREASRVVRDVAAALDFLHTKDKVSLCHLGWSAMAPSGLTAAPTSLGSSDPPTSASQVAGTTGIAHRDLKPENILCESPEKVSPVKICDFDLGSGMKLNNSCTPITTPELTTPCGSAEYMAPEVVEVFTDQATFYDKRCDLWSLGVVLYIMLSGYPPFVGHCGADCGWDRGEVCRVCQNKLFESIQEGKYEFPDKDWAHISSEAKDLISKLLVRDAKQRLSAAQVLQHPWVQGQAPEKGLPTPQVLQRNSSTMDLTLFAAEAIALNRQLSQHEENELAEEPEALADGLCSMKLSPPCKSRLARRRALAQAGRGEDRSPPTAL
Assay [3] deals with T1, MAP kinase-interacting serine/threonine-protein kinase 1. In words: Inhibition of MKN1 (unknown origin) in presence of ATP by HTRF assay.
Target sequence in this assay (Q9BUB5 whole entry): as the sequence (Q9BUB5 whole entry, looked up) above

Bounds are passed on as bounds.

GI50, IC50 and inhibition data for 27 molecules are collected here from ChEMBL document CHEMBL4825757, “Optimization of 4,6-Disubstituted Pyrido[3,2-d]pyrimidines as Dual MNK/PIM Inhibitors to Inhibit Leukemia Cell Growth” (J Med Chem, 2021).

Regarding `O=C(c1ccc(-c2ccc3ncnc(Nc4ccc(C(F)(F)F)cc4)c3n2)cc1)N1CCNCC1`, in the assay on MOLM-13, the 50% growth inhibitory concentration (GI50) – broadly, the concentration that inhibits growth by half – is 2.67 µM. Besides, in assay [1], the IC50 – broadly, the concentration that inhibits the measured activity by half – stood at 0.041 µM. The inhibition (commonly the change of the read-out against control, counted positive when it falls) in assay [2] was 0%.

Regarding `CNC(=O)c1oc2ccc(Nc3ncnc4ccc(Cl)nc34)cc2c1C`, the figures for the concentration for half-maximal inhibition (IC50) in assay [3] and in assay [1] were over 10 µM and 2.5 µM, respectively.

Consider `O=C(c1cccc(-c2ccc3ncnc(Nc4ccccc4)c3n2)c1)N1CCNCC1`, for which, in the assay on MOLM-13, the GI50 is 3.92 µM. Besides, the IC50 in assay [1] stood at 0.624 µM. Moreover, the inhibition in assay [2] amounted to 57%.

For `O=C(c1ccc(-c2ccc3ncnc(Nc4ccccc4)c3n2)cc1)N1CCNCC1`, the GI50 in the assay on MOLM-13 is 3.19 µM. In addition, the half-maximal inhibitory concentration (IC50) in assay [1] came out at 0.036 µM. The inhibition in assay [2] came to 71%.

As to `N#Cc1ccc(Nc2ncnc3ccc(-c4ccc(C(=O)N5CCNCC5)cc4)nc23)cc1`, the 50% inhibitory concentration (IC50) in assay [3] was 0.00015 µM; in assay [1], 0.043 µM. For the same molecule, in assay [2], the inhibition came to 88%.

As for `Cc1c(C(=O)N2CCOCC2)oc2ccc(Nc3ncnc4ccc(Cl)nc34)cc12`, the IC50 in assay [3] is over 10 µM; in assay [1] it was 1.8 µM.

As for `c1ccc(Nc2ncnc3ccc(-c4ccccc4)nc23)cc1`, the 50% inhibitory concentration (IC50) in assay [1] turned out to be 0.612 µM. Also, the inhibition in assay [2] amounted to 0%.

For `O=C(c1ccc(-c2ccc3ncnc(Nc4ccccc4F)c3n2)cc1)N1CCNCC1`, the GI50 with MOLM-13 was found to be 3.08 µM. Besides, in assay [1], the IC50 was 0.01 µM. In addition, the inhibition in assay [2] was 34%.

As to `COC(=O)c1oc2ccc(Nc3ncnc4ccc(Cl)nc34)cc2c1C`, the figures for the IC50 in assay [3] and in assay [1] were over 10 µM and 4.8 µM, respectively.

As to `O=C(c1cccc(C#Cc2ccccc2Nc2ncnc3ccc(Cl)nc23)c1)N1CCNCC1`, the IC50 in assay [3] is over 10 µM; in assay [1], 5 µM.

On to `O=C(c1ccc(-c2ccc3ncnc(Nc4cccc(F)c4)c3n2)cc1)N1CCNCC1`, for which the GI50 in the assay with MOLM-13 was found to be 3.8 µM. For the same molecule, the IC50 in assay [1] stood at 0.033 µM. Further, the inhibition in assay [2] is 70%.

Regarding `CN(C)C(=O)c1cccc(C#Cc2ccccc2Nc2ncnc3ccc(Cl)nc23)c1`, the half-maximal inhibitory concentration (IC50) in assay [3] and in assay [1] was over 10 µM each time.

Take `COc1cc(Nc2ncnc3ccc(-c4ccc(C(=O)N5CCNCC5)cc4)nc23)ccc1F`: the results for the 50% inhibitory concentration (IC50) in assay [3] and in assay [1] were 0.001 µM and 0.025 µM, respectively. Also, in the assay with MOLM-13, the GI50 worked out at 2.85 µM. Moreover, the inhibition in assay [2] stood at 90%.

Consider `O=C(c1ccc(-c2ccc3ncnc(Nc4ccc(F)cc4)c3n2)cc1)N1CCNCC1`, for which the IC50 in assay [3] is 0.0011 µM; in assay [1], 0.026 µM. The 50% growth inhibitory concentration (GI50) in the assay with MOLM-13 came out at 7.93 µM. Besides, the inhibition in assay [2] stood at 83%.

Regarding `CCCNC(=O)c1cccc(C#Cc2ccccc2Nc2ncnc3ccc(Cl)nc23)c1`, the IC50 in assay [3] is over 10 µM; in assay [1], 3.9 µM.

As to `COc1cc(F)ccc1Nc1ncnc2ccc(-c3ccc(C(=O)N4CCNCC4)cc3)nc12`, the IC50 in assay [3] amounted to 0.0012 µM; in assay [1] it was 0.029 µM. In addition, in the assay with MOLM-13, the GI50 worked out at 1.88 µM. Further, the inhibition in assay [2] turned out to be 89%.

For `Cc1c(C(=O)N(C)C)oc2ccc(Nc3ncnc4ccc(Cl)nc34)cc12`, the results for the half-maximal inhibitory concentration (IC50) in assay [3] and in assay [1] were over 10 µM and 2.2 µM, respectively.

On to `O=C(c1cccc(-c2ccc3ncnc(Nc4ccc(F)cc4)c3n2)c1)N1CCNCC1`, for which, in the assay on MOLM-13, the 50% growth inhibitory concentration (GI50) worked out at 6.05 µM. In assay [1], the IC50 came out at 0.052 µM. In addition, the inhibition in assay [2] is 70%.

With `CCCNC(=O)c1oc2ccc(Nc3ncnc4ccc(Cl)nc34)cc2c1C`, the results for the half-inhibitory concentration (IC50) in assay [3] and in assay [1] were over 10 µM and 1.9 µM, respectively.

With `Cc1c(C(=O)N2CCNCC2)oc2ccc(Nc3ncnc4ccc(Cl)nc34)cc12`, the IC50 in assay [3] was over 10 µM; in assay [1], 1.9 µM.

Take `CNC(=O)c1ccc(-c2ccc3ncnc(Nc4ccccc4)c3n2)cc1`: the concentration for 50% growth inhibition (GI50) in the assay with MOLM-13 amounted to 1.83 µM. In assay [1], the IC50 came to 0.058 µM. The inhibition in assay [2] is 37%.

Turning to `Cc1ccc(Nc2ncnc3ccc(-c4ccc(C(=O)N5CCNCC5)cc4)nc23)cc1`, the concentration for 50% growth inhibition (GI50) with MOLM-13 was 3.54 µM. Besides, the concentration for half-maximal inhibition (IC50) in assay [1] was found to be 0.062 µM. Moreover, the inhibition in assay [2] turned out to be 12%.

As for `O=C(c1ccc(-c2ccc3ncnc(Nc4ccc(O)cc4)c3n2)cc1)N1CCNCC1`, the IC50 in assay [3] stood at 0.0085 µM; in assay [1], 0.041 µM. Moreover, in the assay on MOLM-13, the concentration for 50% growth inhibition (GI50) turned out to be 11.2 µM. Besides, in assay [2], the inhibition was determined as 86%.

For `O=C(c1cccc(C#Cc2ccccc2Nc2ncnc3ccc(Cl)nc23)c1)N1CCOCC1`, the IC50 in assay [3] and in assay [1] was over 10 µM each time.

Take `COc1ccc(Nc2ncnc3ccc(-c4ccc(C(=O)N5CCNCC5)cc4)nc23)cc1`: in the assay with MOLM-13, the GI50 stood at 10.1 µM. For the same molecule, the IC50 in assay [1] came out at 0.111 µM. Further, in assay [2], the inhibition is 7%.

As for `COC(=O)c1cccc(C#Cc2ccccc2Nc2ncnc3ccc(Cl)nc23)c1`, the IC50 in assay [3] was over 10 µM; in assay [1] it was 4.2 µM.

For `CNC(=O)c1cccc(C#Cc2ccccc2Nc2ncnc3ccc(Cl)nc23)c1`, the values for the IC50 in assay [3] and in assay [1] were over 10 µM and 4.9 µM, respectively.
